Assay results as given in article PMC4679714, “Influence of a novel, versatile bifunctional chelator on theranostic properties of a minigastrin analogue” (EJNMMI Research, 2015).
Square brackets hold non-standard residues; d marks the D form. Peptide text beside a SMILES is read from it. * marks the point of attachment. X1 = O=C(O)CN1CCN(CC(=O)O)CC(CCCCCCCCCC(=O)*)(N(CC(=O)O)CC(=O)O)C1

Legend:
[1] = set-up: method as in doi:10.1002/ejic.201201108; conditions: cited from earlier work
human CCK2 receptor = target: T1, human CCK2 receptor (Homo sapiens, UniProt P32239); assay: Receptor binding affinity (IC50), displacement of 177Lu-labelled CP04 from CCK2+ cell membranes; conditions: radioligand 177Lu-labelled CP04, 1 h at 37 °C
T1 construct: expressed in transfected cells; host or cells: A431-309CCK2R (A431 cells transfected with CCK2R); membranes released by hypoosmotic lysis
T1 sequence (P32239 1-447): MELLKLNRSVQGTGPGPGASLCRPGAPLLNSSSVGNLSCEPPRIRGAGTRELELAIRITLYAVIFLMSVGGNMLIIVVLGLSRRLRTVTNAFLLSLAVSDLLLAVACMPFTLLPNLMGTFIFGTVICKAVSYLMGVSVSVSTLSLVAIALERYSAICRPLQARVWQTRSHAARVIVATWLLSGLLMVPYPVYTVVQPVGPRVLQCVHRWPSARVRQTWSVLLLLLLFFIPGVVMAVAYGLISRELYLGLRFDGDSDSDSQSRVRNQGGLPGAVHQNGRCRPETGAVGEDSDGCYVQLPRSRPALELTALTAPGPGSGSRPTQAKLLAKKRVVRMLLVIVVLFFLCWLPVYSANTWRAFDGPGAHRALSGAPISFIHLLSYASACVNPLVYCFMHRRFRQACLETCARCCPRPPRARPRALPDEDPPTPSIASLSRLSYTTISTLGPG
Protocol: A human transfected cell line was used with two different expression properties of the cholecystokinin (CCK) receptor: CCK2+ (A431-309CCK2R; receptor-positive cells) and CCK2− (A431-609; mock transfected control cells) cells.
In vitro binding affinities of AAZTA-MG were determined by using CCK2+ cell membranes and ^177Lu-labelled CP04 (a minigastrin analogue with high affinity to the CCK2 receptor) as radioligand incubated with increasing concentrations of the competitor. As competitor AAZTA-MG and [^natLu]- and [^natGa]-AAZTA-MG were used. The latter were prepared by incubating 10 μg AAZTA-MG with a tenfold molar excess of Lu-chloride in ascorbic acid buffer and 100 μl Ga-bromide in sodium acetate buffer for 10 min, respectively.
The 96-well plates (MulitScreen Filter Plates, HTS) were washed with 250 μL 10 mM TRIS buffered saline (pH 7.3). CCK2 cells were diluted in 20 mM HEPES buffer containing […] MgCl2—in this hypoosmotic solution the cells were cracked releasing free membranes.

Structure (SMILES) | Stability constant (logK) for Ga^3+ [1] | Stability constant (logK) for In^3+ [1] | other results
CC1(N(CC(=O)O)CC(=O)O)CN(CC(=O)O)CCN(CC(=O)O)C1 [AAZTA, 6-[Bis(carboxymethyl)amino]-1,4-bis(carboxymethyl)-6-methyl-1,4-diazepane] | 22.18 | 29.58 | –
CSCC[C@H](NC(=O)[C@H](Cc1c[nH]c2ccccc12)NC(=O)CNC(=O)[C@H](Cc1ccc(O)cc1)NC(=O)[C@H](C)NC(=O)[C@@H](CCC(=O)O)NC(=O)CCCCCCCCCC1(N(CC(=O)O)CC(=O)O)CN(CC(=O)O)CCN(CC(=O)O)C1)C(=O)N[C@@H](CC(=O)O)C(=O)N[C@@H](Cc1ccccc1)C(N)=O [AAZTA-MG, [AAZTA^0, D-Glu^1, desGlu^2–6]-minigastrin] (X1-[dE]AYGWMDF-NH2) | – | – | IC50 (human CCK2 receptor): 10 nM
CSCC[C@H](NC(=O)[C@H](Cc1c[nH]c2ccccc12)NC(=O)CNC(=O)[C@H](Cc1ccc(O)cc1)NC(=O)[C@H](C)NC(=O)[C@@H](CCC(=O)O)NC(=O)CCCCCCCCCC1(N(CC(=O)O)CC(=O)O)CN(CC(=O)O)CCN(CC(=O)O)C1)C(=O)N[C@@H](CC(=O)O)C(=O)N[C@@H](Cc1ccccc1)C(N)=O [[^natGa]AAZTA-MG, metal not drawn] (X1-[dE]AYGWMDF-NH2) | – | – | IC50 (human CCK2 receptor; listed as [^natGa]-AAZTA-MG): 8.18 ± 3.16 nM
CSCC[C@H](NC(=O)[C@H](Cc1c[nH]c2ccccc12)NC(=O)CNC(=O)[C@H](Cc1ccc(O)cc1)NC(=O)[C@H](C)NC(=O)[C@@H](CCC(=O)O)NC(=O)CCCCCCCCCC1(N(CC(=O)O)CC(=O)O)CN(CC(=O)O)CCN(CC(=O)O)C1)C(=O)N[C@@H](CC(=O)O)C(=O)N[C@@H](Cc1ccccc1)C(N)=O [[^natLu]AAZTA-MG, metal not drawn] (X1-[dE]AYGWMDF-NH2) | – | – | IC50 (human CCK2 receptor; listed as [^natLu]): 9.44 ± 4.57 nM
O=C(O)CN1CCN(CC(=O)O)CCN(CC(=O)O)CCN(CC(=O)O)CC1 [^68Ga-DOTA, 1,4,7,10-tetraazacyclododecane-1,4,7,10-tetraacetic acid, metal not drawn] | 21.3 | 23.9 | –
